Earlier results, collected in patent US8415299B2, “Methods for improved avian performance” (priority 2004, dated 2013).

Assays:
[1] = tested on: laying hens; conditions: cited from earlier work
[2] = tested on: T4 and rT3 deiodination systems; conditions: rat liver homogenates; cited from earlier work

C=C1C[C@H]2[C@@H]3C=C(C)C4=CC(=O)CC[C@]4(C)[C@H]3CC[C@]2(C)[C@@]1(OC(C)=O)C(C)=O [melengestrol acetate]
Effect on reproductive system ([1]; 4 or 8 mg per laying hen per day through the feed (Koch et al. 2004)): reversible regression of the reproductive system

I [iodide]
Effect on egg production ([1]; 5,000 mg/kg diet): cessation of egg production

CCNC(=O)[C@@H]1CCCN1C(=O)[C@H](CCCNC(=N)N)NC(=O)[C@H](CC(C)C)NC(=O)[C@@H](CC(C)C)NC(=O)[C@H](Cc1ccc(O)cc1)NC(=O)[C@H](CO)NC(=O)[C@H](Cc1c[nH]c2ccccc12)NC(=O)[C@H](Cc1c[nH]cn1)NC(=O)[C@@H]1CCC(=O)N1 [leuprolide acetate]
Body weight ([1]; single i.m. depot injection releasing 60 mcg/kg body weight per day for 30 days): no body weight loss | Egg production ([1]; single i.m. depot injection releasing 60 mcg/kg body weight per day for 30 days, second week (Burke and Attia 1994)): 3.5%

C[C@]12C[C@H](O)[C@H]3[C@@H](CCC4=CC(=O)CC[C@@]43C)[C@@H]1CC[C@@H]2C(=O)CO [corticosterone]
Laying hens with cessation of egg production ([1]; 20 to 40 mg/kg diet (Wolford et al. 1983)): 98%

[Zn+2] [zinc]
Action on progesterone production in F1 granulosa cells of the ovary ([1]; 2,800 mg/kg diet (Johnson and Brake 1992)): inhibitory action | Inhibition of T4 and rT3 deiodination [2]: potent inhibitor
